Data published in patent publication US20250262199A1, “TREATMENT OF AUTOIMMUNE SKIN DISEASE” (ASLAN PHARMACEUTICALS PTE LTD, priority 2022, published 2025).

Assays:
Format in all cases: in vivo
[1] = tested on: vitiligo mouse model (transgenic Krt14-KitL* (SCF) mice); experiment: Vitiligo scoring in vitiligo mouse model; details: oral gavage, 6 weeks (30 treatment days), FIG. 1
PMEL T cells = experiment: Flow cytometry of PMEL T cell counts in tissues of vitiligo mouse model
[2] = tested on: Alopecia areata mouse model (C3H/HeJ mice); experiment: Hair coverage in Alopecia areata mouse model (C3H/HeJ skin graft); details: 150 or 300 mg/kg/day once daily oral gavage, week 8 time point (10 weeks after engraftment), vs vehicle; interim data; FIG. 3
Procedure: The C3H/HeJ mouse strain is known to spontaneously develop alopecia (AA) at a low frequency over a prolonged time frame. Transplantation of AA-affected skin from a C3H/HeJ mouse to unaffected C3H/HeJ recipients will induce the development of AA in nearly 100% of recipients over 4-8 weeks. Accordingly, to produce the AA mouse model, AA-affected C3H/HeJ skin was grafted onto groups of unaffected C3H/HeJ mice. The following treatment groups (n=10 per treatment group) were tested: • 1. Vehicle 0.5% methylcellulose (negative control) • 2. 150 mg/kg/day farudostat • 3. 300 mg/kg/day farudostat Treatments were administered once daily by oral gavage starting 2 weeks after engraftment and concluded after 12 weeks (84 days) of treatment. Photographs were taken at baseline, and every 4 weeks until the end of study Ventral hair growth was scored based on the photographs. Any mouse that had >98% hair coverage was classified as ‘no hair loss’.

SMILES: COc1cccc(-c2cc(F)c(Nc3ncccc3C(=O)O)c(F)c2)c1 [farudostat, 2-(3,5-difluoro-3′-methoxybiphenyl-4-ylamino) nicotinic acid]
- final mean vitiligo score ([1]; 75 mg/kg/day, vs vehicle): improvement in vitiligo score
- final mean vitiligo score ([1]; 150 mg/kg/day, vs vehicle and 75 mg/kg/day group): greater improvement in vitiligo score compared to the 75 mg/kg/day group
- mean PMEL count, 150 mg/kg/day compared to 75 mg/kg/day (PMEL T cells; 150 mg/kg/day, oral gavage, FIGS. 2A to 2D): greater reduction in mean PMEL count compared to 75 mg/kg/day
- mean PMEL T cell count, dermis (PMEL T cells; farudostat 75 and 150 mg/kg/day, oral gavage, end of experiment, FIG. 2B): reduction in mean Pmel T cell count
- mean PMEL T cell count, epidermis (PMEL T cells; farudostat 75 and 150 mg/kg/day, oral gavage, end of experiment, FIG. 2C): reduction in mean Pmel T cell count
- mean PMEL count, spleen (PMEL T cells; spleen, compared with anti-IFNγ positive control, FIG. 2D): reduction in mean PMEL count in the spleen that was even greater than that observed for anti-IFNγ
- mean % hair coverage [2]: slight improvement in % hair coverage
